# From ChEMBL document CHEMBL5634146, “Discovery of benzimidazole-indazole derivatives as potent FLT3-tyrosine kinase domain mutant kinase inhibitors for acute myeloid leukemia” (Eur J Med Chem, 2023)
# What was measured:
# in vitro [1] = conditions: mouse, liver S9 fraction
# in vitro [2] = conditions: human, liver S9 fraction
compound,measurement,setting,value
N[C@H]1CC[C@H](NC(=O)c2ccc3[nH]nc(-c4nc5ccc(N6CCOCC6)cc5[nH]4)c3c2)C1,remaining at 0.5 h,in vitro [1],61%
same,remaining at 0.5 h,in vitro [2],61%
